Data set [1] deals with MGC-803. As to the kind of experiment: Induction of cell cycle arrest in human MGC803 cells assessed as accumulation of cells at S phase at 20 uM incubated for 24 hrs propidium iodide-A staining-based flow cytometric analysis (reference value: 17%). Format: functional. On the technique in general: Flow cytometry measures light scatter and fluorescence of single cells or particles in a stream.

The subject of data set [2] is MGC-803. In words: Induction of apoptosis in human MGC803 cells assessed as early apoptotic cells at 10 uM incubated for 48 hrs by Annexin V-FITC/propidium iodide staining-based flow cytometric analysis (reference value: 1.83%). Format: functional.
Data set [3] relates to MGC-803. As to the kind of experiment: Induction of apoptosis in human MGC803 cells assessed as late apoptotic cells at 10 uM incubated for 48 hrs by Annexin V-FITC/propidium iodide staining-based flow cytometric analysis (reference value: 0.84%). Format: functional.
Data set [4] has as its system MGC-803. In words: Induction of apoptosis in human MGC803 cells assessed as early apoptotic cells at 20 uM incubated for 48 hrs by Annexin V-FITC/propidium iodide staining-based flow cytometric analysis (reference value: 1.83%). The class given is functional.
Data set [5] deals with MGC-803. As to the kind of experiment: Induction of cell cycle arrest in human MGC803 cells assessed as accumulation of cells at G2/M phase at 2 uM incubated for 24 hrs propidium iodide-A staining-based flow cytometric analysis (reference value: 31%). The class given is functional.
Data set [6] relates to MGC-803. In words: Induction of apoptosis in human MGC803 cells assessed as viable cells at 20 uM incubated for 48 hrs by Annexin V-FITC/propidium iodide staining-based flow cytometric analysis (reference value: 97.15%). Conditions: MGC-803, 48 h, read-out: Activity. The class given is functional.
The subject of data set [7] is MGC-803. As to the kind of experiment: Induction of apoptosis in human MGC803 cells assessed as viable cells at 2 uM incubated for 48 hrs by Annexin V-FITC/propidium iodide staining-based flow cytometric analysis (reference value: 97.15%). The class given is functional. The conditions noted are these: MGC-803, 48 h, read-out: Activity.
Data set [8] deals with MGC-803. As to the kind of experiment: Induction of cell cycle arrest in human MGC803 cells assessed as accumulation of cells at G1 phase at 20 uM incubated for 24 hrs propidium iodide-A staining-based flow cytometric analysis (reference value: 52%). The class given is functional.
For data set [9], the system named is MGC-803. In words: Induction of apoptosis in human MGC803 cells assessed as late apoptotic cells at 20 uM incubated for 48 hrs by Annexin V-FITC/propidium iodide staining-based flow cytometric analysis (reference value: 0.84%). The class given is functional.
In data set [10] the test system is MGC-803. In words: Cytotoxicity against human MGC803 cells after 72 hrs by CCK8 assay. Format: functional, cell-based. The conditions noted are these: for IC50: MGC-803, 72 h. (Tetrazolium assays rely on reduction of a dye to a coloured formazan, in cell work by metabolically active cells.)
The test system of data set [11] is MGC-803. In words: Induction of apoptosis in human MGC803 cells assessed as early apoptotic cells at 2 uM incubated for 48 hrs by Annexin V-FITC/propidium iodide staining-based flow cytometric analysis (reference value: 1.83%). The class given is functional.
Data set [12] relates to MGC-803. In words: Induction of apoptosis in human MGC803 cells assessed as late apoptotic cells at 2 uM incubated for 48 hrs by Annexin V-FITC/propidium iodide staining-based flow cytometric analysis (reference value: 0.84%). Format: functional.
For data set [13], the system named is MGC-803. As to the kind of experiment: Induction of apoptosis in human MGC803 cells assessed as necrotic cells at 5 uM incubated for 48 hrs by Annexin V-FITC/propidium iodide staining-based flow cytometric analysis (reference value: 0.18%). The class given is functional.
In data set [14] the test system is MGC-803. As to the kind of experiment: Induction of cell cycle arrest in human MGC803 cells assessed as accumulation of cells at G2/M phase at 10 uM incubated for 24 hrs propidium iodide-A staining-based flow cytometric analysis (reference value: 31%). Format: functional.
Data set [15] concerns MGC-803. In words: Induction of apoptosis in human MGC803 cells assessed as PARP cleavage at 20 uM incubated for 24 hrs by Western blot analysis. The class given is functional, cell-based.
Data set [16] concerns MGC-803. As to the kind of experiment: Induction of cell cycle arrest in human MGC803 cells assessed as accumulation of cells at S phase at 2 uM incubated for 24 hrs propidium iodide-A staining-based flow cytometric analysis (reference value: 17%). Format: functional.
Data set [17] relates to MGC-803. In words: Induction of cell cycle arrest in human MGC803 cells assessed as accumulation of cells at G1 phase at 2 uM incubated for 24 hrs propidium iodide-A staining-based flow cytometric analysis (reference value: 52%). Format: functional.
In data set [18] the test system is MGC-803. As to the kind of experiment: Induction of apoptosis in human MGC803 cells assessed as necrotic cells at 20 uM incubated for 48 hrs by Annexin V-FITC/propidium iodide staining-based flow cytometric analysis (reference value: 0.18%). The class given is functional.
A further data set concerns HGC-27. As to the kind of experiment: Cytotoxicity against human HGC27 cells after 72 hrs by CCK8 assay. The class given is functional, cell-based. Conditions: for IC50: HGC-27, 72 h.
The test system of data set [19] is MGC-803. As to the kind of experiment: Induction of apoptosis in human MGC803 cells assessed as necrotic cells at 2 uM incubated for 48 hrs by Annexin V-FITC/propidium iodide staining-based flow cytometric analysis (reference value: 0.18%). The class given is functional.
Data set [20] concerns MGC-803. In words: Induction of apoptosis in human MGC803 cells assessed as late apoptotic cells at 5 uM incubated for 48 hrs by Annexin V-FITC/propidium iodide staining-based flow cytometric analysis (reference value: 0.84%). The class given is functional.
Data set [21] addresses Signal transducer and activator of transcription 3 (Homo sapiens) (UniProt P40763). As to the kind of experiment: Inhibition of STAT3 phosphorylation in human MGC803 cells at 2 to 20 uM incubated for 24 hrs by Western blot analysis. The class given is cell-based. The conditions noted are these: MGC-803. (Immunoblotting shows a protein as a band on a membrane.)
Data set [22] deals with MGC-803. As to the kind of experiment: Induction of apoptosis in human MGC803 cells assessed as viable cells at 10 uM incubated for 48 hrs by Annexin V-FITC/propidium iodide staining-based flow cytometric analysis (reference value: 97.15%). Conditions: MGC-803, 48 h, read-out: Activity. The class given is functional.
Another data set has as its system GES1. In words: Cytotoxicity against human GES-1 cells after 72 hrs by CCK8 assay. The class given is cell-based. Conditions: GES1, 72 h.
Data set [23] has as its system MGC-803. In words: Induction of cell cycle arrest in human MGC803 cells assessed as accumulation of cells at S phase at 10 uM incubated for 24 hrs propidium iodide-A staining-based flow cytometric analysis (reference value: 17%). The class given is functional.
Data set [24] relates to MGC-803. In words: Induction of cell cycle arrest in human MGC803 cells assessed as accumulation of cells at S phase at 5 uM incubated for 24 hrs propidium iodide-A staining-based flow cytometric analysis (reference value: 17%). The class given is functional.
Data set [25] relates to MGC-803. In words: Induction of apoptosis in human MGC803 cells assessed as viable cells at 5 uM incubated for 48 hrs by Annexin V-FITC/propidium iodide staining-based flow cytometric analysis (reference value: 97.15%). The class given is functional. The conditions noted are these: MGC-803, 48 h, read-out: Activity.
Data set [26] has as its system MGC-803. In words: Induction of cell cycle arrest in human MGC803 cells assessed as accumulation of cells at G2/M phase at 20 uM incubated for 24 hrs propidium iodide-A staining-based flow cytometric analysis (reference value: 31%). The class given is functional.
The subject of data set [27] is MGC-803. In words: Induction of cell cycle arrest in human MGC803 cells assessed as accumulation of cells at G2/M phase at 5 uM incubated for 24 hrs propidium iodide-A staining-based flow cytometric analysis (reference value: 31%). Format: functional.
Data set [28] has as its system MGC-803. In words: Induction of cell cycle arrest in human MGC803 cells assessed as accumulation of cells at G1 phase at 10 uM incubated for 24 hrs propidium iodide-A staining-based flow cytometric analysis (reference value: 52%). Format: functional.
Another data set has as its system BGC-823. In words: Cytotoxicity against human BGC823 cells after 72 hrs by CCK8 assay. Format: functional, cell-based. The conditions noted are these: for IC50: BGC-823, 72 h.
Data set [29] has as its system MGC-803. As to the kind of experiment: Induction of apoptosis in human MGC803 cells assessed as necrotic cells at 10 uM incubated for 48 hrs by Annexin V-FITC/propidium iodide staining-based flow cytometric analysis (reference value: 0.18%). Format: functional.
The test system of data set [30] is MGC-803. As to the kind of experiment: Induction of apoptosis in human MGC803 cells assessed as early apoptotic cells at 5 uM incubated for 48 hrs by Annexin V-FITC/propidium iodide staining-based flow cytometric analysis (reference value: 1.83%). Format: functional.
For a further data set, the system named is AGS. In words: Cytotoxicity against human AGS cells after 72 hrs by CCK8 assay. The class given is functional, cell-based.
For data set [31], the system named is MGC-803. In words: Effect on total STAT3 expression in human MGC803 cells at 20 uM incubated for 24 hrs by Western blot analysis. The class given is cell-based. The conditions noted are these: mgc-803, 24 h.
Data set [32] relates to MGC-803. As to the kind of experiment: Induction of cell cycle arrest in human MGC803 cells assessed as accumulation of cells at G1 phase at 5 uM incubated for 24 hrs propidium iodide-A staining-based flow cytometric analysis (reference value: 52%). The class given is functional.

The source made the active and inactive calls. The rule behind the calls is not given here.

Chain of Signal transducer and activator of transcription 3 (Homo sapiens) (P40763 whole entry): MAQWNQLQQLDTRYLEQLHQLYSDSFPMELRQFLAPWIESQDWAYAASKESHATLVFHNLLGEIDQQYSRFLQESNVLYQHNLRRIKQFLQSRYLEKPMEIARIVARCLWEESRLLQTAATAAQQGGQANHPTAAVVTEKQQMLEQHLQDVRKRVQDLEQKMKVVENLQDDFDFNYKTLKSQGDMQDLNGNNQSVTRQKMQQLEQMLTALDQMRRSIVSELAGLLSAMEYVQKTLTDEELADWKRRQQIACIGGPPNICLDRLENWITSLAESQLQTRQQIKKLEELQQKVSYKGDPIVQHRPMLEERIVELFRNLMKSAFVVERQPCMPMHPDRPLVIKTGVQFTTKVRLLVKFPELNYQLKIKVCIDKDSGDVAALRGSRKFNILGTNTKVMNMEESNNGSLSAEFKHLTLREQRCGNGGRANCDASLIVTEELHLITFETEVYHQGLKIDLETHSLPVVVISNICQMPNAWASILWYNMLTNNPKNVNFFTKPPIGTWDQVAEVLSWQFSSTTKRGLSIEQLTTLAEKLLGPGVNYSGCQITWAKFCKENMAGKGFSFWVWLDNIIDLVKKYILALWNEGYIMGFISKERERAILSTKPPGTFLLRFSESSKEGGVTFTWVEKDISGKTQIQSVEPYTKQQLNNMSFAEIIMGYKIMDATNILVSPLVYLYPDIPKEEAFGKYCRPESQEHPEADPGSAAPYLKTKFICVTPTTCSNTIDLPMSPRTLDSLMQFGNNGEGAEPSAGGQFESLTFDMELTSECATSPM

As a reminder, the IC50 is the midpoint of a concentration-inhibition curve. As for `Cc1c2c(c(O)c3c1[C@H](C)[C@@H](C)O3)/C(=C/c1ccccc1)C(=O)O2`, the Activity amounted to 23% in the data set on MGC-803 [1]; 1.95% in the data set on MGC-803 [2]; 0.39% in the data set on MGC-803 [3]; 7.57% in the data set on MGC-803 [4]; 34% in the data set on MGC-803 [5]; 53% in the data set with MGC-803 [8]. Also, the Activity was 1.51% in the data set with MGC-803 [9]; “Dose-dependent effect” in the data set with MGC-803 [10]; 0.72% with MGC-803 [11]; 0.34% with MGC-803 [12]; 0.26% with MGC-803 [13]; 33% with MGC-803 [14]. Moreover, the Activity is 16% in the data set on MGC-803 [16]; 50% in the data set with MGC-803 [17]; 1.55% in the data set with MGC-803 [18]; “Dose-dependent effect” in the data set with HGC-27; 0.54% in the data set on MGC-803 [19]; 0.24% with MGC-803 [20]. The Activity in the data set on MGC-803 [23] was 18%; with MGC-803 [24], 16%; in the data set with MGC-803 [26], 24%; with MGC-803 [27] it was 36%; in the data set with MGC-803 [28], 49%; with BGC-823 it was “Dose-dependent effect”. For the same compound, the Activity in the data set with MGC-803 [29] was 0.59%; with MGC-803 [30], 0.78%; with AGS, “Dose-dependent effect”; in the data set on MGC-803 [31], “Toxic”; in the data set on MGC-803 [32], 48%. For the same compound, the viability at 20 µM in the data set on MGC-803 [6] is 89.4%. Also, the viability at 2 µM in the data set with MGC-803 [7] was 98.4%. Further, the IC50 with MGC-803 [10] turned out to be 7 µM; in the data set with HGC-27 it was 3.4 µM; with GES1, 29 µM; in the data set on BGC-823 it was 6.2 µM; with AGS it was 8.2 µM. Besides, the result with MGC-803 [15] was Active. Moreover, in data set [21], the inhibition result is “Active”. Further, the viability at 10 µM with MGC-803 [22] was found to be 97.1%. Further, in the data set with MGC-803 [25], the viability at 5 µM was 98.7%.
For `CC(=O)O[C@H]1C(=O)[C@@]2(C)[C@H]([C@H](OC(=O)c3ccccc3)[C@]3(O)C[C@H](OC(=O)[C@H](O)[C@@H](NC(=O)c4ccccc4)c4ccccc4)C(C)=C1C3(C)C)[C@]1(OC(C)=O)CO[C@@H]1C[C@@H]2O` [PACLITAXEL], the IC50 with MGC-803 [10] is 0.0038 µM; in the data set with HGC-27, 0.0084 µM; in the data set on GES1, 0.0079 µM; with BGC-823 it was 0.0013 µM; in the data set with AGS it was 0.053 µM.
